Measured values as given in EPA's aquatic toxicity sets.

Test system: Tetrahymena pyriformis
Experiment: 48 h IGC50 (-log10 mol/L); higher = more toxic

Compound	48 h IGC50 (-log10 mol/L)
CC(C)(Br)C(=O)C(C)(C)Br	3.51
CCCCCCCCCCOC(=O)CC#N	4.7
CCCCC(=O)OCCC	3.01
CC(C)C(C)O (stereo not given)	2
Clc1sccc1Br	3.73
COc1ccc(N)cc1O	3.45
CC/C=C/CC(=O)O	2.78
Oc1ccccc1-c1ccccc1O	3.88
O=Cc1ccc[nH]1	2.52
O=Cc1cc(O)ccc1O	3.28
CCOC(=O)c1ccc(F)cc1	3.01
O=[N+]([O-])c1ccc(F)c(Cl)c1	3.8
CCCCCCC=O	3
CC(C)(C)c1ccc(N)cc1	3.36
CCCN=C=S	4.69
CCCCC#CCCO	3.02
CCCC(O)Cc1ccccc1 (stereo not given)	3.16
C=CC(=O)OCCCC	3.52
CCCCCCCCCCOC(C)=O	4.88
CCCCCCC#CC(=O)O	3.71
N#CCCBr	2.5
CC(O)C(c1ccccc1)c1ccccc1 (stereo not given)	3.75
C/C=C/C(=O)OC	2.08
C/C=C(\C)C=O	2.86

Compound	48 h IGC50 (-log10 mol/L)
CC(C#N)c1ccccc1 (stereo not given)	3.01
Cc1cc(Br)cc(C)c1O	4.16
O=[N+]([O-])c1cc(O)ccc1Cl	4.27
Cc1cc(N)ncc1[N+](=O)[O-]	3.37
OCCOc1cccc(O)c1	2.13
Nc1cccc(O)c1	2.48
OC/C=C/c1ccccc1	2.92
Oc1ccc(Cl)c(O)c1	3.13
CCCCOC(=O)c1ccc(O)cc1	4.33
NC(=S)NCc1ccccc1	3.66
CCCCC(C(=O)OCC)C(=O)OCC	3.56
ClC/C=C/CCl	3.77
OCc1ccccc1I	3.33
O=[N+]([O-])c1cc(Cl)c(Cl)c(Cl)c1Cl	4.78
N#Cc1ccc(-c2ccccc2)cc1	4.24
COC(=O)CCC(=O)OC	1.94
N#Cc1cccc(O)c1	2.94
OCCc1ccc(Cl)cc1	3.32
CCc1cccs1	2.57
CC(C)(C)c1ccc(CO)cc1	3.48
O=[N+]([O-])c1cccnc1Cl	3.87
CCOC(=O)Cc1ccc(O)c(OC)c1	2.77
CC(C)(C)c1cc([N+](=O)[O-])c(O)c([N+](=O)[O-])c1	4.8
CCCCCCCCC(=O)O	3.35

Compound	48 h IGC50 (-log10 mol/L)
N#CCc1ccc([N+](=O)[O-])cc1	3.13
CCCSc1ccccc1	3.86
C=CCC(C(=O)OCC)C(=O)OCC	2.94
O=[N+]([O-])c1ccc(F)c(F)c1F	4.89
N#C/C=C/c1ccccc1	3.16
Nc1c([N+](=O)[O-])ccc2ncccc12	3.92
OCCc1cccc2ccccc12	3.27
NC(CO)CO	1.32
CCC(O)CO (stereo not given)	0.952
O=Cc1ccc(I)o1	3.33
CCCCCC#CC=O	4.72
Oc1cc(O)c(Cl)cc1Cl	3.97
CCOC(=O)c1ccc(O)cc1	3.57
CCOC(=O)C(Br)C(C)Br (stereo not given)	4.44
CCCCNC	2.32
NC(=O)c1ccc(Cl)cc1	3.09
C=CCc1ccccc1	3.19
CC(C)CC(=O)OCCc1ccccc1	4.1
O=C(O)c1cccc(O)c1	2.19
O=C(O)CCCCCCC(=O)O	2.49
CCC(C)(C)N	2.3
O=[N+]([O-])c1cccc(-c2ccccc2)c1	4.57
CCOC(=O)C(C(=O)OCC)=C(C)C	2.93
CCC/C=C/C(C)=O	3.7

Compound	48 h IGC50 (-log10 mol/L)
CCCCCCN	2.78
c1ccc2ccccc2c1	2.88
O=C1C=CC(=O)c2c(O)ccc(O)c21	5.83
COC(=O)CCCCCCCCCCCC(=O)OC	4.65
O=C(O)c1cc(Br)ccc1Br	2.69
CCCCCCCCCCCC#N	4.9
Ic1ccccc1	3.36
CCCCOC(N)=O	2.03
CC(Cl)C(N)=O (stereo not given)	1.56
C=CCOC(=O)C=C	3.68
Cc1ccc(C#N)cc1	2.9
C=CC(=O)CC	4.52
CCOC(=O)CCCCCC(=O)OCC	3.41
CCC(C)CO (stereo not given)	2.05
O=C(O)CCCCl	2.32
Cc1ccc(O)c(Br)c1	3.6
OCCC(c1ccccc1)c1ccccc1	4.04
O=C(CBr)c1ccc2ccccc2c1	5.96
CCOC(=O)Cc1cccs1	3.27
COc1ccc([N+](=O)[O-])cc1	3.54
Cc1cc2ccccc2n1C	3.84
CCSCC	2.02
O=C(O)c1cc(Cl)cc(Cl)c1	3.27
CC/C=C\CO	1.9

Compound	48 h IGC50 (-log10 mol/L)
O=Cc1ccc([N+](=O)[O-])s1	4.98
Oc1c(Cl)cccc1Cl	3.73
CN(CCO)CCO	1.17
O=C(O)c1cc(Cl)ccc1O	2.6
O=Cc1cc2ccccc2c2ccccc12	4.71
CC#CC(C)(O)CCC (stereo not given)	2.52
CCOC(=O)C(C)(C)Br	3.15
CCCCCC(=O)Cl	3.34
CC(Br)c1ccccc1 (stereo not given)	2.33
C/C=C/C(=O)CCCC	4.01
O=[N+]([O-])c1cccc2ncccc12	3.39
Cc1ccc(Cl)cc1N	3.5
O=Cc1ccc(Cl)c([N+](=O)[O-])c1	4.19
CCCCCN	2.52
O=C(CBr)Oc1ccccc1	5.08
CS(C)(=O)=O	0.8
O=C(O)CCCBr	2.23
CC(C)COC=O	1.69
O=[N+]([O-])c1cc(Cl)cc(Cl)c1O	4.75
CC(C)(O)Cc1ccccc1	2.59
CC(C)(C)N	2.1
CCCCCOc1ccc(C=O)cc1	4.18
CC(C)(C)CO	2.13
C#CC(C)(C)N	2.09

Compound	48 h IGC50 (-log10 mol/L)
CCC[N+](=O)[O-]	2.01
CC(C)(Br)C(=O)O	2.42
N#Cc1ccccc1C#N	2.66
Nc1ccccc1I	3.35
CCC(C)(O)c1ccccc1 (stereo not given)	3.06
Oc1ccc(O)cc1	3.47
CC(=O)c1c(C)c[nH]c1C	2.68
CC(=O)c1cc[nH]c1	2.15
CCCCCCCCCN	4.7
OCc1ccc(F)cc1	2.38
CCOC(=O)C(C)CC (stereo not given)	2.11
N#Cc1cc([N+](=O)[O-])c(Cl)c([N+](=O)[O-])c1	5.66
O=C(CBr)c1cc2ccccc2oc1=O	5.66
O=[N+]([O-])c1ccc(Cl)nc1	3.8
COc1ccccc1Cl	3.22
CCOC(=O)c1ccccn1	2.08
CCCCCCC(C)O (stereo not given)	3
CCCCCOC(=O)c1ccccc1	4.37
CCCCCCCCC(O)CO (stereo not given)	3.76
O=C(CBr)c1ccccc1	5.82
C=C(C)OC(C)=O	2.51
O=C/C(Cl)=C/c1ccccc1	4.73
N#Cc1ccc(Cl)c([N+](=O)[O-])c1	4.71
C=CCOC(=O)CC	2.12

Compound	48 h IGC50 (-log10 mol/L)
O=Cc1ccccc1Br	3.48
CCCCCC#CC(=O)OCC	4.24
O=Cc1ccc(O)c(O)c1	3.11
O=C(CBr)c1ccsc1	5.22
CCOC(=O)C#Cc1ccccc1	4.67
CCCCOc1ccc([N+](=O)[O-])cc1	4.42
O=[N+]([O-])c1ccc(O)c(O)c1	4.17
O=Cc1cccs1	2.95
O=Cc1cccc(O)c1O	3.11
CCN(C)c1ccccc1	3.29
COC(=O)C(C)Br (stereo not given)	4.18
O=[N+]([O-])c1cccc(Br)c1	4.03
CCCCCCC#CC(=O)OCC	4.38
Cc1ccc(C)c(N)c1	2.67
C=COC(=O)C=C	4.42
O=[N+]([O-])c1ccc(CBr)cc1	5.31
CCc1cccc(O)c1	3.29
CC=C(C)C(=O)OCC	2.5
CC#CCOC(C)=O	2.12
CCCCC#CC(=O)OCC	4.11
Clc1cccc2ccccc12	3.81
